This data set has as its system skin. Nature of the data set: Safety test: skin irritation patch test of the surfactants. As to conditions: Sample (solution) per table head; patch on 20 subjects for 24 hours, evaluated 24 hours after removing; clear erythema = positive. The data set is classed as in vivo. How it is done:
As a safety test on the above trehalose-6-fatty acid esters, irritation to skin was examinaed in accordance with the following procedures.
[…] Irritaion was evaluated 24 hours after removing the patch. […] Sodium laurylphosphate used as a control is a surfactant which is usually used in shampoos, body shampoos and the like.

`C=CCCCCCCCCC(=O)OCC1OC(OC2OC(CO)C(O)C(O)C2O)C(O)C(O)C1O` (stereo not shown) [6-(10-Undecylenyl)-trehalose, 6-(10-undecylenyl)-trehalose]: the “Irritation to skin, positive, %” value is 0%.
As to `CCCCCCCCCCCCOP(=O)([O-])O.[Na+]` [Monosodium lauryl phosphate, reference compound], the “Irritation to skin, positive, %” value is recorded as 0.5%.
On to `CCCCCCCCCCCC(=O)OCC1OC(OC2OC(CO)C(O)C(O)C2O)C(O)C(O)C1O` (stereo not shown) [6-Lauroyl-trehalose, 6-lauroyl-trehalose], for which the “Irritation to skin, positive, %” value is on record as 0%.
As to `CCCCCCCCCCCCCCCCCC(=O)OC[C@H]1O[C@H](O[C@H]2O[C@H](CO)[C@@H](O)[C@H](O)[C@H]2O)[C@H](O)[C@@H](O)[C@@H]1O` [6-Stearoyl-trehalose, 6-stearoyl-trehalose], the “Irritation to skin, positive, %” value is reported as 0%.

Values taken from patent US6497898B1, “Surfactant, and an emulsion-type cosmetic composition and a lipsome containing said surfactant” (Kanebo LTD, priority 1993, dated 2002).
